In brackets after ≈: the same amount, converted by molar mass.
Assays:
M-HeLa = assay: Cytotoxicity against human HelaM cells assessed as number of viable cells measured after 48 hrs by MTT based colorimetric assay; type: functional, cell-based
MCF7 = assay: Cytotoxicity against human MCF7 cells assessed as number of viable cells measured after 48 hrs by MTT based colorimetric assay; type: functional, cell-based; details: MCF7, 48 h
HuTu80 [1] = assay: Cytotoxicity against human HuTu80 cells assessed as number of viable cells measured after 48 hrs by MTT based colorimetric assay; type: functional, cell-based; details: HuTu80, 48 h
PANC-1 = assay: Cytotoxicity against human PANC-1 cells assessed as number of viable cells measured after 48 hrs by MTT based colorimetric assay; type: functional, cell-based; details: PANC-1, 48 h
A549 = assay: Cytotoxicity against human A549 cells assessed as number of viable cells measured after 48 hrs by MTT based colorimetric assay; type: functional, cell-based; details: A549, 48 h
PC-3 = assay: Cytotoxicity against human PC-3 cells assessed as number of viable cells measured after 48 hrs by MTT based colorimetric assay; type: functional, cell-based; details: PC-3, 48 h
T98G = assay: Cytotoxicity against human T98G cells assessed as number of viable cells measured after 48 hrs by MTT based colorimetric assay; type: functional, cell-based
HepG2 = assay: Cytotoxicity against human HepG2 cells assessed as number of viable cells measured after 48 hrs by MTT based colorimetric assay; type: functional, cell-based; details: HepG2, 48 h
SK-OV-3 = assay: Cytotoxicity against human SK-OV-3 cells assessed as number of viable cells measured after 48 hrs by MTT based colorimetric assay; type: functional, cell-based; details: SK-OV-3, 48 h
DU-145 = assay: Cytotoxicity against human DU-145 cells assessed as number of viable cells measured after 48 hrs by MTT based colorimetric assay; type: functional, cell-based; details: DU-145, 48 h
[2] = Cytotoxicity against human WI-38 cells assessed as number of viable cells measured after 48 hrs by MTT based colorimetric assay; type: toxicity, cell-based
[3] = Cytotoxicity against human Chang liver cells assessed as number of viable cells measured after 48 hrs by MTT based colorimetric assay; type: toxicity, cell-based
Homo sapiens [4] = species: Homo sapiens; assay: Selectivity index, ratio of IC50 for human Chang liver cells to IC50 for human HelaM cells
Homo sapiens [5] = species: Homo sapiens; assay: Selectivity index, ratio of IC50 for human Chang liver cells to IC50 for human MCF7 cells
Homo sapiens [6] = species: Homo sapiens; assay: Selectivity index, ratio of IC50 for human Chang liver cells to IC50 for human HuTu80 cells
Homo sapiens [7] = species: Homo sapiens; assay: Selectivity index, ratio of IC50 for human Chang liver cells to IC50 for human SK-OV-3 cells
Homo sapiens [8] = species: Homo sapiens; assay: Selectivity index, ratio of IC50 for human Chang liver cells to IC50 for human DU-145 cells
HuTu80 [9] = assay: Induction of apoptosis in human HuTu80 cells assessed as viable cells at 5 uM incubated for 48 hrs by annexin V FITC/propidium iodide staining based flow cytometry analysis (reference value: 93.71%); type: functional; details: read-out: Activity
HuTu80 [10] = assay: Induction of apoptosis in human HuTu80 cells assessed as viable cells at 10 uM incubated for 48 hrs by annexin V FITC/propidium iodide staining based flow cytometry analysis (reference value: 93.71%); type: functional; details: read-out: Activity
HuTu80 [11] = assay: Induction of apoptosis in human HuTu80 cells assessed as early apoptotic cells at 5 uM incubated for 48 hrs by annexin V FITC/propidium iodide staining based flow cytometry analysis (reference value: 1.74%); type: functional
HuTu80 [12] = assay: Induction of apoptosis in human HuTu80 cells assessed as early apoptotic cells at 10 uM incubated for 48 hrs by annexin V FITC/propidium iodide staining based flow cytometry analysis (reference value: 1.74%); type: functional
HuTu80 [13] = assay: Induction of apoptosis in human HuTu80 cells assessed as late apoptotic cells at 5 uM incubated for 48 hrs by annexin V FITC/propidium iodide staining based flow cytometry analysis (reference value: 0.00%); type: functional
HuTu80 [14] = assay: Induction of apoptosis in human HuTu80 cells assessed as late apoptotic cells at 10 uM incubated for 48 hrs by annexin V FITC/propidium iodide staining based flow cytometry analysis (reference value: 0.00%); type: functional
HuTu80 [15] = assay: Induction of apoptosis in human HuTu80 cells assessed as necrotic cells at 5 uM incubated for 48 hrs by annexin V FITC/propidium iodide staining based flow cytometry analysis (reference value: 4.56%); type: functional
HuTu80 [16] = assay: Induction of apoptosis in human HuTu80 cells assessed as necrotic cells at 10 uM incubated for 48 hrs by annexin V FITC/propidium iodide staining based flow cytometry analysis (reference value: 4.56%); type: functional
HuTu80 [17] = assay: Induction of cell cycle arrest in human HuTu80 cells assessed as accumulation of cell at G1/G0 phase at 5 uM measured after 48 hrs by propidium iodide staining based analysis (reference value: 72%); type: functional
HuTu80 [18] = assay: Induction of cell cycle arrest in human HuTu80 cells assessed as accumulation of cell at G1/G0 phase at 10 uM measured after 48 hrs by propidium iodide staining based analysis (reference value: 72%); type: functional
HuTu80 [19] = assay: Induction of cell cycle arrest in human HuTu80 cells assessed as accumulation of cell at G2/M phase at 5 uM measured after 48 hrs by propidium iodide staining based analysis (reference value: 18.7%); type: functional
HuTu80 [20] = assay: Induction of cell cycle arrest in human HuTu80 cells assessed as accumulation of cell at G2/M phase at 10 uM measured after 48 hrs by propidium iodide staining based analysis (reference value: 18.7%); type: functional
HuTu80 [21] = assay: Induction of cell cycle arrest in human HuTu80 cells assessed as accumulation of cell at S phase at 5 uM measured after 48 hrs by propidium iodide staining based analysis (reference value: 8.1%); type: functional
HuTu80 [22] = assay: Induction of cell cycle arrest in human HuTu80 cells assessed as accumulation of cell at S phase at 10 uM measured after 48 hrs by propidium iodide staining based analysis (reference value: 8.1%); type: functional
HuTu80 [23] = assay: Induction of ROS production in human HuTu80 cells assessed as increase in fluorescence intensity at 5 uM measured after 48 hrs by flow cytometry based analysis (reference value: 380); type: functional
HuTu80 [24] = assay: Induction of ROS production in human HuTu80 cells assessed as increase in fluorescence intensity at 10 uM measured after 48 hrs by flow cytometry based analysis (reference value: 380); type: functional
HuTu80 [25] = assay: Induction of mitochondrial membrane potential loss in human HuTu80 cells assessed as J-monomer green fluorescence intensity at 5 uM incubated for 24 hrs by JC10 staining based flow cytometry method (reference value: 5.7%); type: functional
HuTu80 [26] = assay: Induction of mitochondrial membrane potential loss in human HuTu80 cells assessed as J-monomer green fluorescence intensity at 10 uM incubated for 24 hrs by JC10 staining based flow cytometry method (reference value: 5.7%); type: functional
HuTu80 [27] = assay: Induction of mitochondrial membrane potential loss in human HuTu80 cells assessed as J-aggregates red fluorescence intensity at 5 uM incubated for 24 hrs by JC10 staining based flow cytometry method (reference value: 94.4%); type: functional
HuTu80 [28] = assay: Induction of mitochondrial membrane potential loss in human HuTu80 cells assessed as J-aggregates red fluorescence intensity at 10 uM incubated for 24 hrs by JC10 staining based flow cytometry method (reference value: 94.4%); type: functional
Staphylococcus aureus [29] = assay: Antimicrobial activity against Staphylococcus aureus ATCC 6538 P FDA 209P by serial microdilution method; type: functional
Bacillus cereus [30] = assay: Antimicrobial activity against Bacillus cereus ATCC 10702 NCTC 8035 by serial microdilution method; type: functional
Enterococcus faecalis [31] = assay: Antimicrobial activity against Enterococcus faecalis ATCC 29212 by serial microdilution method; type: functional
Escherichia coli [32] = assay: Antimicrobial activity against Escherichia coli ATCC 25922 by serial microdilution method; type: functional
Staphylococcus aureus [33] = assay: Bactericidal against Staphylococcus aureus ATCC 6538 P FDA 209P by serial microdilution method; type: functional
Enterococcus faecalis [34] = assay: Bactericidal activity against Enterococcus faecalis ATCC 29212 by serial microdilution method; type: functional
Escherichia coli [35] = assay: Bactericidal activity against Escherichia coli ATCC 25922 by serial microdilution method; type: functional
Pseudomonas aeruginosa [36] = assay: Antimicrobial activity against Pseudomonas aeruginosa ATCC 9027 by serial microdilution method; type: functional
Bacillus cereus [37] = assay: Bactericidal activity against Bacillus cereus ATCC 10702 NCTC 8035 by serial microdilution method; type: functional
Pseudomonas aeruginosa [38] = assay: Bactericidal against Pseudomonas aeruginosa ATCC 9027 by serial microdilution method; type: functional

Compound: CCCCC/C=C\C/C=C\CCCCCCCC(=O)OCC(O)COC(=O)CCCC[P+](c1ccccc1)(c1ccccc1)c1ccccc1.[Br-] (configuration not stated)
- IC50 (M-HeLa): 55.6 µM
- IC50 (MCF7): 37.7 µM
- IC50 (HuTu80 [1]): 9.5 µM
- IC50 (PANC-1): 59 µM
- IC50 (A549): 62.5 µM
- IC50 (PC-3): 63.9 µM
- IC50 (T98G): 98 µM
- IC50 (HepG2): 76 µM
- IC50 (SK-OV-3): 39.4 µM
- IC50 (DU-145): 49.1 µM
- IC50 at 48 h [2]: 56.6 µM
- IC50 at 48 h [3]: 63 µM
- Ratio IC50 (Homo sapiens [4]): 1.1
- Ratio IC50 (Homo sapiens [5]): 1.7
- Ratio IC50 (Homo sapiens [6]): 6.6
- Ratio IC50 (Homo sapiens [7]): 1.6
- Ratio IC50 (Homo sapiens [8]): 1.3
- viability at 5 µM (HuTu80 [9]): 72.2%
- viability at 10 µM (HuTu80 [10]): 56.2%
- Activity (HuTu80 [11]): 3.99%
- Activity (HuTu80 [12]): 5.67%
- Activity (HuTu80 [13]): 13.1%
- Activity (HuTu80 [14]): 19.59%
- Activity (HuTu80 [15]): 10.7%
- Activity (HuTu80 [16]): 18.56%
- Activity (HuTu80 [17]): 81%
- Activity (HuTu80 [18]): 82%
- Activity (HuTu80 [19]): 11%
- Activity (HuTu80 [20]): 9.3%
- Activity (HuTu80 [21]): 5.7%
- Activity (HuTu80 [22]): 5.4%
- Flu intensity (HuTu80 [23]): 1000
- Flu intensity (HuTu80 [24]): 1700
- Activity (HuTu80 [25]): 26.1%
- Activity (HuTu80 [26]): 38.1%
- Activity (HuTu80 [27]): 73.9%
- Activity (HuTu80 [28]): 61.9%
- MIC (Staphylococcus aureus [29]): 5 µM
- MIC (Bacillus cereus [30]): 20 µM
- MIC (Enterococcus faecalis [31]): 20 µM
- MIC (Escherichia coli [32]): 20 µM
- MBC (Staphylococcus aureus [33]): 5 µM
- MBC (Enterococcus faecalis [34]): 80 µM
- MBC (Escherichia coli [35]): 80 µM

Compound: CCn1cc(C(=O)O)c(=O)c2cc(F)c(N3CCNCC3)cc21 [NORFLOXACIN]
- MIC (Pseudomonas aeruginosa [36]): 12.1 µM (≈ 3.86 µg/mL)
- MIC (Staphylococcus aureus [29]): 7.5 µM (≈ 2.4 µg/mL)
- MIC (Bacillus cereus [30]): 24.4 µM (≈ 7.79 µg/mL)
- MIC (Enterococcus faecalis [31]): 24.4 µM (≈ 7.79 µg/mL)
- MIC (Escherichia coli [32]): 4.7 µM (≈ 1.5 µg/mL)
- MBC (Staphylococcus aureus [33]): 7.5 µM (≈ 2.4 µg/mL)
- MBC (Bacillus cereus [37]): 24.4 µM (≈ 7.79 µg/mL)
- MBC (Enterococcus faecalis [34]): 24.4 µM (≈ 7.79 µg/mL)
- MBC (Escherichia coli [35]): 24.4 µM (≈ 7.79 µg/mL)
- MBC (Pseudomonas aeruginosa [38]): 49 µM (≈ 15.6 µg/mL)

Compound: O=c1[nH]cc(F)c(=O)[nH]1 [FLUOROURACIL]
- IC50 (M-HeLa): 62 µM
- IC50 (HuTu80 [1]): 65.2 µM
- IC50 (PANC-1): 100 µM
- IC50 (A549): 32.4 µM
- IC50 (PC-3): 10.3 µM
- IC50 (SK-OV-3): 47.2 µM
- IC50 at 48 h [2]: 62 µM
- IC50 at 48 h [3]: 19 µM

— ChEMBL document CHEMBL5252638, “Novel triphenylphosphonium amphiphilic conjugates of glycerolipid type: synthesis, cytotoxic and antibacterial activity, and targeted cancer cell delivery” (RSC Med Chem, 2023)
